Here are results for eleven molecules from ChEMBL document CHEMBL1201862, “PubChem BioAssay data set” (2004).

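Values below derive from 48-hour exposures of cells grown in 96-well plates, with endpoints linearly interpolated between the two concentrations bracketing the appropriate inhibition level. GI50 marks 50% less growth.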 Activity calls are given as the source filed them. Cut-off read from the data, not from the text of the source: active = GI50 up to about 1.1 µM and inactive = higher.

Common to all, as to experiment: NCI-60 cell line screen, 48 h
In experiment [1] the test system is 786-0.
Experiment [2] has as its system A498.
Experiment [3] deals with A549.
The subject of experiment [4] is ACHN.
Experiment [5] deals with CAKI-1.
Experiment [6] has as its system CCRF-CEM.
Experiment [7] relates to EKVX.
The subject of experiment [8] is HCT-116.
Experiment [9] relates to HOP-92.
Experiment [10] has as its system HT-29.
Experiment [11] concerns KM12.
Experiment [12] deals with LOX IMVI.
Experiment [13] relates to MOLT-4.
The test system of experiment [14] is Malme-3M.
The test system of experiment [15] is NCI-H522.
Experiment [16] relates to OVCAR-8.
Experiment [17] has as its system SF-295.
In experiment [18] the test system is SK-OV-3.
Experiment [19] relates to MCF7.
Experiment [20] deals with MDA-MB-435.

Regarding `Cc1cccc2c1c1ccc3c(c1n2C)C(=O)C=CC3=O`, the GI50 in experiment [1] was 1.94 µM (inactive); in [2], 27.4 µM (inactive); in [3] it was 18.9 µM (inactive); in experiment [4], 7.73 µM (inactive); in experiment [5], 3.2 µM (inactive); in [6], 0.468 µM (active). Further, the GI50 was 18.9 µM (inactive) in experiment [7]; 5.86 µM (inactive) in experiment [8]; 2.08 µM (inactive) in experiment [9]; 3.47 µM (inactive) in experiment [10]; 13.2 µM (inactive) in [11]; 4.94 µM (inactive) in experiment [12]. The GI50 in [13] is 0.536 µM (active); in experiment [14], 4.33 µM (inactive); in experiment [15] it was 1.51 µM (inactive); in experiment [16], 5.37 µM (inactive); in experiment [17] it was 16.3 µM (inactive); in [18] it was 20.1 µM (inactive).

Consider `CCOC(=O)COc1ccccc1/C=C1\CCC(CN(C)C)C1=O` (stereo not drawn), for which the GI50 in experiment [1] was 2.94 µM (inactive); in experiment [2], 17.2 µM (inactive); in experiment [3], 21.5 µM (inactive); in [4] it was 13.9 µM (inactive); in experiment [5] it was 3.02 µM (inactive); in experiment [6], 1.1 µM (active). Further, the GI50 is 13.8 µM (inactive) in experiment [7]; 3.4 µM (inactive) in experiment [8]; 10.9 µM (inactive) in experiment [9]; 5.86 µM (inactive) in [10]; 3.71 µM (inactive) in [11]; 2.22 µM (inactive) in experiment [12]. The GI50 in experiment [19] is 2.57 µM (inactive); in experiment [13], 2.11 µM (inactive); in experiment [14] it was 5.19 µM (inactive); in experiment [15], 2.72 µM (inactive); in experiment [16], 4.2 µM (inactive); in [17] it was 16.1 µM (inactive). In addition, the GI50 in experiment [18] is 17.5 µM (inactive).

Regarding `C[C@]12CC[C@H](O)CC1=CC[C@@H]1C2CC[C@]2(C)C(=O)NC(=O)CC12` (stereo partly drawn), the GI50 in experiment [1] is 55.5 µM (inactive); in experiment [2], > 100 µM (inactive); in experiment [3] it was > 100 µM (inactive); in experiment [4] it was > 100 µM (inactive); in [5], > 100 µM (inactive); in [6] it was 35.4 µM (inactive). Further, the GI50 in experiment [7] was > 100 µM (inactive); in [8] it was 53.7 µM (inactive); in [9] it was > 100 µM (inactive); in experiment [10], 82.2 µM (inactive); in experiment [11], 35.5 µM (inactive); in experiment [12], 65.9 µM (inactive). Besides, the GI50 in experiment [13] was 30.6 µM (inactive); in [14], 92.5 µM (inactive); in experiment [15], 63 µM (inactive); in [16] it was 45.6 µM (inactive); in experiment [17], > 100 µM (inactive); in experiment [18], > 100 µM (inactive).

In the case of `C=C(c1ccccc1)[C@@]1(O)CCCC[C@H]1NC(c1ccccc1)c1ccccc1`, the GI50 in experiment [1] is 12.7 µM (inactive); in experiment [2], 13.9 µM (inactive); in [3], 11.8 µM (inactive); in experiment [4] it was 11.7 µM (inactive); in experiment [5], 7.67 µM (inactive); in [6] it was 4.34 µM (inactive). Moreover, the GI50 in [7] was 15.3 µM (inactive); in experiment [8], 7.93 µM (inactive); in experiment [9], 12.6 µM (inactive); in experiment [10], 11.7 µM (inactive); in [11], 11.1 µM (inactive); in [12] it was 9.84 µM (inactive). Also, the GI50 in experiment [13] is 2.73 µM (inactive); in experiment [14], 16.1 µM (inactive); in experiment [15] it was 8.85 µM (inactive); in experiment [16], 13.8 µM (inactive); in experiment [17] it was 12.1 µM (inactive); in experiment [18], 19.1 µM (inactive).

Consider `CC(=O)CCC1(C(=O)OCC(C)C)CCCC1=O` (stereo not drawn), for which the GI50 in experiment [1], in experiment [3], in experiment [4], in experiment [5], in [6] and in experiment [7] was > 100 µM (inactive) in each case. Further, the GI50 in experiment [8] is > 100 µM (inactive); in experiment [9], 90.6 µM (inactive); in experiment [10] it was > 100 µM (inactive); in experiment [11], > 100 µM (inactive); in experiment [12] it was > 100 µM (inactive); in experiment [20], > 100 µM (inactive). The GI50 in experiment [13], in [14], in experiment [15], in experiment [16], in experiment [17] and in experiment [18] was > 100 µM (inactive) each time.

Regarding `CC(=O)OCc1c2ccccc2c(C)c2c1cc(F)c1ccccc12`, the GI50 is 30.1 µM (inactive) in experiment [1]; 39 µM (inactive) in experiment [2]; 32.4 µM (inactive) in experiment [3]; 17.5 µM (inactive) in experiment [4]; 31 µM (inactive) in experiment [5]; 12.2 µM (inactive) in experiment [6]. Further, the GI50 was 34.4 µM (inactive) in experiment [7]; 31.3 µM (inactive) in experiment [8]; 40.6 µM (inactive) in experiment [9]; 17.7 µM (inactive) in experiment [10]; > 100 µM (inactive) in experiment [11]; 18.5 µM (inactive) in [12]. For the same molecule, the GI50 was 7.74 µM (inactive) in experiment [13]; 52.2 µM (inactive) in experiment [14]; 12.2 µM (inactive) in experiment [15]; 18.9 µM (inactive) in [16]; 29.6 µM (inactive) in [17]; 52.5 µM (inactive) in experiment [18].

Turning to `CC(=S)NNC(=O)c1ccncc1`, the GI50 in experiment [1], in experiment [2], in experiment [3], in [4], in experiment [5] and in [6] was > 100 µM (inactive) each time. Further, the GI50 in [7], in [8], in experiment [9], in [10], in experiment [11] and in experiment [12] was > 100 µM (inactive) each time. Also, the GI50 in [13], in experiment [14], in experiment [15], in experiment [16], in [17] and in [18] was > 100 µM (inactive) throughout.

Turning to `COC(=O)/C(C#N)=C1\NC(=O)CC(c2ccccc2)C1C#N` (stereo not drawn), the GI50 in experiment [1], in experiment [3], in experiment [4], in experiment [5], in experiment [6] and in experiment [7] was > 100 µM (inactive) throughout. The GI50 in [8] was > 100 µM (inactive); in experiment [9], 63.5 µM (inactive); in [10], > 100 µM (inactive); in experiment [11] it was > 100 µM (inactive); in experiment [12], > 100 µM (inactive); in [19], > 100 µM (inactive). The GI50 in experiment [13], in [14], in experiment [15], in experiment [16], in experiment [17] and in [18] was > 100 µM (inactive) throughout.

Take `NNC(=O)c1nnn(N)c1S`: the GI50 in experiment [1] is 93.8 µM (inactive); in experiment [2], > 100 µM (inactive); in experiment [3], > 100 µM (inactive); in experiment [4], > 100 µM (inactive); in experiment [5] it was 84.5 µM (inactive); in [6], 66.1 µM (inactive). In addition, the GI50 was > 100 µM (inactive) in experiment [7]; > 100 µM (inactive) in experiment [8]; > 100 µM (inactive) in experiment [10]; 13.5 µM (inactive) in experiment [11]; 79.6 µM (inactive) in [12]; > 100 µM (inactive) in [20]. The GI50 in experiment [13], in [14], in [15], in experiment [16], in experiment [17] and in experiment [18] was > 100 µM (inactive) each time.

As for `COc1cc(/C=C2\[C@@H]3NC(Cc4c(OC)c(C)c(OC)c(OC)c43)C(=O)N2Cc2ccccc2)c(OC)c(C)c1OC`, the GI50 in experiment [1] is 48.6 µM (inactive); in experiment [2], 30.9 µM (inactive); in [3], 41.5 µM (inactive); in experiment [4], 44 µM (inactive); in experiment [5], 48 µM (inactive); in experiment [6], 30.8 µM (inactive). The GI50 in experiment [7] is 29.4 µM (inactive); in experiment [8], 37.5 µM (inactive); in experiment [9] it was 20 µM (inactive); in [10], 24.9 µM (inactive); in experiment [11], 56.1 µM (inactive); in [12], 42.7 µM (inactive). Besides, the GI50 was 27.5 µM (inactive) in experiment [13]; 28.2 µM (inactive) in experiment [14]; 18.4 µM (inactive) in experiment [15]; 36.1 µM (inactive) in [16]; 40.8 µM (inactive) in experiment [17]; 26.2 µM (inactive) in experiment [18].

As for `NC(Cc1ccc(B(O)O)cc1)C(=O)NC(CO)CO` (stereo not drawn), the GI50 in experiment [1], in experiment [3], in [4], in experiment [5], in [6] and in experiment [7] was > 100 µM (inactive) in each case. Further, the GI50 in experiment [8], in [10], in experiment [11], in experiment [12], in experiment [20] and in experiment [13] was > 100 µM (inactive) throughout. Besides, the GI50 in [14], in experiment [15], in experiment [16], in experiment [17] and in experiment [18] was > 100 µM (inactive) each time.
